Drawing on US10487071B2, “Bis-triazole compounds with anti-biofilm and anti-corrosion properties” (Université de Toulon, priority 2015, dated 2019), this text covers activity, EC50 and IE % for 7 molecules.

One assay has as its system Paracoccus sp. (4M6). The experiment in a line: Anti-adhesion test, strain 4M6. Type of assay: cell-based. As to conditions: Paracoccus; for activity at 200 µM: 15 h, read-out: % of adhesion at 200 μM, 4M6; for EC50: read-out: EC50 (effective concentration to inhibit 50% of the adhesion), 4M6. As for the experimental part: (§1) The anti-adhesion bioassays and toxicity tests are adapted from those disclosed in M. Camps, J.-F. Briand, L. Guentas-Dombrowsky, G. Culioli, A. Bazire and Y. Blache, Mar. Poll.
(§2) Bacterial strains were grown on Väätänen nine-salts solution (VNSS). When the stationary phase was reached, the bacterial suspension was centrifuged. Cells were then diluted in sterile artificial sea water (ASW) and introduced in microtiter plates (sterile black PS; Nunc, Fisher Scientific, France) with the tested compound (at eight concentrations in three replicates) in the presence of three controls: (i) non-specific staining control, (ii) adhesion control, and (iii) positive control. The maximum percentage of solvent (DMSO 2%) used to dilute the tested compound was also tested in triplicate as additional control. After incubation during an optimized adhesion time (moderately 15 h), non-adhered bacteria were eliminated and adhered cells were quantified after SYTO 61 (1 μM) staining. A percentage of inhibition was calculated per well. A sigmoid dose-response curve was obtained by plotting the percentage of inhibition as a function of the log of tested compound concentration, after mean (n=3) and standard deviation (SD) calculation per triplicate for each concentration. EC50 values were then calculated for each compound.

Assay [1] concerns Pseudoalteromonas lipolytica (TC8). The experiment in a line: Anti-adhesion test, strain TC8. As to conditions: Pseudoalteromonas lipolytica; for activity at 200 µM: 15 h, read-out: % of adhesion at 200 μM, TC8; for EC50: read-out: EC50 (effective concentration to inhibit 50% of the adhesion), TC8. Type of assay: cell-based. The method, then: as §1, §2
The next assay has as its system Shewanella sp. (TC11). The assay is described as follows: Anti-adhesion test, strain TC11. As to conditions: for activity at 200 µM: 15 h, strain TC11, read-out: % of adhesion at 200 μM, TC11; for EC50: read-out: EC50 (effective concentration to inhibit 50% of the adhesion), strain TC11. The class given is cell-based. The method, then: as §2
Shewanella sp. (TC11) was isolated in June 2010 in the Military Harbor of Toulon (Mediterranean Sea, France) as described in F. Brian-Jaisson, A. Ortalo-Magné, L. Guentas-Dombrowsky, F. Armougom, Y. Blache, M. Molmeret, Microb. Ecol., 2014, 68, 94-110.

The nature of assay [2]: Gravimetry (weight loss), corrosion inhibition. To be noted: mild steel in 1N HCl. As for the experimental part: The corrosion rates were determined by electrochemical impedance spectroscopy measurements and gravimetry.
Weight loss measurements were performed on 2.5×2.0×0.1 cm rectangular mild steel coupons. The mild steel coupons were immersed into non-de-aerated HCl 1N solution in absence and presence of different concentrations of compounds of general formula (I). After the elapsed time, the coupons were taken out, washed, dried and weighed accurately. Experiments were duplicated.
Weight loss experiments were done to confirm the corrosion inhibitive properties of AS164.
The inhibition efficiency, IE (%), was estimated from the weight loss experiments using the following equation:
[formula] wherein CR^o and CR are respectively the corrosion rate in the absence and presence of AS164.

A further assay deals with Polaribacter sp. (TC5). The assay is described as follows: Anti-adhesion test, strain TC5. The class given is cell-based. To be noted: for activity at 200 µM: 15 h; for EC50: read-out: EC50 (effective concentration to inhibit 50% of the adhesion). As for the experimental part:
as §2
Polaribacter sp. (TC5) was isolated in June 2010 in the Military Harbor of Toulon (Mediterranean Sea, France) as described in F. Brian-Jaisson, A. Ortalo-Magné, L. Guentas-Dombrowsky, F. Armougom, Y. Blache, M. Molmeret, Microb. Ecol., 2014, 68, 94-110.

Assay [3] relates to Pseudoalteromonas ulvae (TC14). The experiment in a line: Anti-adhesion test, strain TC14. To be noted: Pseudoalteromonas ulvae; for activity at 200 µM: 15 h; for EC50: read-out: EC50 (effective concentration to inhibit 50% of the adhesion). Type of assay: cell-based. As for the experimental part: as §2
Pseudoalteromonas ulvae (TC14) was isolated in June 2010 in the Military Harbor of Toulon (Mediterranean Sea, France) as described in F. Brian-Jaisson, A. Ortalo-Magné, L. Guentas-Dombrowsky, F. Armougom, Y. Blache, M. Molmeret, Microb. Ecol., 2014, 68, 94-110.

Take `CN(C)CCCOc1ccc(CCn2cc(-c3ccc(-c4cn(CCc5ccc(OCCCN(C)C)cc5)nn4)cc3)nn2)cc1` [SA12, 3-(4-(2-(4-(4-(1-(4-(3-(dimethylamino)propoxy)phenethyl)-1H-1,2,3-triazol-4-yl)phenyl)-1H-1,2,3-triazol-1-yl)ethyl)phenoxy)-N,N-dimethylpropan-1-amine]: the activity at 200 µM in the assay with Paracoccus sp. (4M6) amounted to 14.3 ± 7.3%; in assay [1], 30 ± 21.9%; in the assay on Shewanella sp. (TC11) it was 41 ± 4.1%; in the assay on Polaribacter sp. (TC5), 66.2 ± 2.8%; in assay [3], 42.4 ± 8.6%. Moreover, the EC50 in the assay on Paracoccus sp. (4M6) was 73.2 ± 10.7 µM; in assay [1], 177 ± 80.1 µM; in the assay with Shewanella sp. (TC11), 173 ± 22.4 µM; in assay [3], 187 ± 16.5 µM. Besides, the IE % is recorded as 39.30% in assay [2] (0.1 ppm); 69.97% in assay [2] (0.3 ppm); 94.65% in assay [2] (0.5 ppm); 96.89% in assay [2] (2 ppm); 95.73% in assay [2] (10 ppm).
As to `CN(C)CCCOc1ccc(-n2cc(-c3ccc(-c4cn(-c5ccc(OCCCN(C)C)c(Br)c5)nn4)cc3)nn2)cc1Br` [SA66, 3-(4-(4-(4-(1-(4-(3-(dimethylamino)propoxy)-3-bromophenyl)-1H-1,2,3-triazol-4-yl)phenyl)-1H-1,2,3-triazol-1-yl)-2-bromophenoxy)-N,N-dimethylpropan-1-amine], the activity at 200 µM in the assay with Paracoccus sp. (4M6) was found to be 24.5 ± 6.9%; in assay [1], 31.7 ± 2.2%; in the assay on Shewanella sp. (TC11), 45.5 ± 1.1%; in the assay with Polaribacter sp. (TC5), 23.3 ± 4%; in assay [3], 19 ± 6.5%. Besides, the EC50 with Paracoccus sp. (4M6) came out at 44.2 ± 25.2 µM; in assay [1], 141 ± 16.5 µM; in the assay with Shewanella sp. (TC11) it was 165 ± 37.8 µM; with Polaribacter sp. (TC5) it was 50.2 ± 10.9 µM; in assay [3] it was 104 ± 4.6 µM. Further, the IE % in assay [2] (0.1 ppm) worked out at 85.79%; in assay [2] (0.3 ppm) it was 88.30%; in assay [2] (0.5 ppm), 90.41%; in assay [2] (2 ppm) it was 95.16%; in assay [2] (10 ppm), 96.48%.
As for `CN(C)CCCOc1ccc(CCCn2cc(-c3ccc(-c4cn(CCCc5ccc(OCCCN(C)C)c(Br)c5)nn4)cc3)nn2)cc1Br` [SA32, 3-(4-(3-(4-(4-(1-(3-(4-(3-(dimethylamino)propoxy)-3-bromophenyl)propyl)-1H-1,2,3-triazol-4-yl)phenyl)-1H-1,2,3-triazol-1-yl)propyl)-2-bromophenoxy)-N,N-dimethylpropan-1-amine], the activity at 200 µM with Paracoccus sp. (4M6) worked out at 26.7 ± 5.6%; in assay [1], 17.7 ± 11.1%; with Shewanella sp. (TC11) it was 17.4 ± 2.9%; in the assay on Polaribacter sp. (TC5), 53.4 ± 13.8%; in assay [3], 34.3 ± 2.6%. Also, the EC50 was 3.1 ± 8.6 µM in the assay with Paracoccus sp. (4M6); 109 ± 37.2 µM in assay [1]; 61.1 ± 18.5 µM in the assay on Shewanella sp. (TC11); 114 ± 28.6 µM with Polaribacter sp. (TC5); 115 ± 20.5 µM in assay [3]. The IE % in assay [2] (0.1 ppm) came to 79.01%; in assay [2] (0.3 ppm), 95.43%; in assay [2] (0.5 ppm), 96.30%; in assay [2] (2 ppm), 96.54%; in assay [2] (10 ppm), 95.58%.
As to `CN(C)CCOc1ccc(CCn2cc(-c3ccc(-c4cn(CCc5ccc(OCCN(C)C)c(Cl)c5)nn4)cc3)nn2)cc1Cl` [SA63, 2-(4-(2-(4-(4-(1-(4-(2-(dimethylamino)ethoxy)-3-chlorophenethyl)-1H-1,2,3-triazol-4-yl)phenyl)-1H-1,2,3-triazol-1-yl)ethyl)-2-chlorophenoxy)-N,N-dimethylethanamine], the activity at 200 µM in the assay on Paracoccus sp. (4M6) is 43.6 ± 3.3%; in assay [1] it was 29 ± 3.2%; with Shewanella sp. (TC11), 37 ± 1%; with Polaribacter sp. (TC5), 37.3 ± 6%; in assay [3], 30.6 ± 5.3%. In addition, the EC50 with Paracoccus sp. (4M6) was determined as 96.6 ± 36.2 µM; in assay [1], 138 ± 10.6 µM; in the assay on Shewanella sp. (TC11), 136 ± 5.1 µM; in the assay on Polaribacter sp. (TC5), 133 ± 9.2 µM; in assay [3], 122 ± 10.7 µM. For the same molecule, the IE % in assay [2] (0.1 ppm) came to 90.68%; in assay [2] (0.3 ppm) it was 95.02%; in assay [2] (0.5 ppm), 95.82%; in assay [2] (2 ppm), 95.98%; in assay [2] (10 ppm), 96.95%.
Take `CN(C)CCOc1ccc(-n2cc(-c3ccc(-c4cn(-c5ccc(OCCN(C)C)cc5)nn4)cc3)nn2)cc1` [SA61, 2-(4-(4-(4-(1-(4-(2-(dimethylamino)ethoxy)phenyl)-1H-1,2,3-triazol-4-yl)phenyl)-1H-1,2,3-triazol-1-yl)phenoxy)-N,N-dimethylethanamine]: the activity at 200 µM in the assay with Paracoccus sp. (4M6) came to 40.2 ± 0.3%; in assay [1] it was 45.6 ± 1.2%; with Shewanella sp. (TC11), 19.3 ± 16.9%; in the assay with Polaribacter sp. (TC5) it was 89.4 ± 0.8%; in assay [3] it was 47.8 ± 1.7%. For the same molecule, the EC50 with Paracoccus sp. (4M6) is 179 ± 44.9 µM; in assay [1], 184.4 ± 0.6 µM; with Shewanella sp. (TC11) it was 140 ± 63.5 µM; in assay [3], 194 ± 13.7 µM. The IE % in assay [2] (0.1 ppm) stood at 87.42%; in assay [2] (0.3 ppm), 91.92%; in assay [2] (0.5 ppm), 94.34%; in assay [2] (2 ppm), 95.55%; in assay [2] (10 ppm), 95.93%.
On to `CN(C)CCOc1ccc(CCn2cc(-c3ccc(-c4cn(CCc5ccc(OCCN(C)C)c(I)c5)nn4)cc3)nn2)cc1I` [SA45, 2-(4-(2-(4-(4-(1-(4-(2-(dimethylamino)ethoxy)-3-iodophenethyl)-1H-1,2,3-triazol-4-yl)phenyl)-1H-1,2,3-triazol-1-yl)ethyl)-2-iodophenoxy)-N,N-dimethylethanamine], for which the activity at 200 µM worked out at 3.2 ± 4.6% in the assay with Paracoccus sp. (4M6); 30 ± 16.3% in assay [1]; 9.3 ± 0.5% with Shewanella sp. (TC11); 37.5 ± 13.3% with Polaribacter sp. (TC5); 42.1 ± 2.9% in assay [3]. The EC50 was 14.2 ± 3.2 µM in the assay with Paracoccus sp. (4M6); 135 ± 34.3 µM in assay [1]; 129 ± 13.2 µM in the assay with Shewanella sp. (TC11); 147 ± 32.4 µM in the assay with Polaribacter sp. (TC5); 175 ± 21.2 µM in assay [3]. Also, the IE % in assay [2] (0.1 ppm) amounted to 78.07%; in assay [2] (0.3 ppm) it was 93.01%; in assay [2] (0.5 ppm) it was 94.67%; in assay [2] (2 ppm), 95.23%; in assay [2] (10 ppm) it was 96.09%.
`CN(C)CCCOc1ccc(CCn2cc(-c3ccc(-c4cn(CCc5ccc(OCCCN(C)C)c(Cl)c5)nn4)cc3)nn2)cc1Cl` [SA64, 3-(4-(2-(4-(4-(1-(4-(3-(dimethylamino)propoxy)-3-chlorophenethyl)-1H-1,2,3-triazol-4-yl)phenyl)-1H-1,2,3-triazol-1-yl)ethyl)-2-chlorophenoxy)-N,N-dimethylpropan-1-amine]: the activity at 200 µM with Paracoccus sp. (4M6) was 31 ± 12.4%; in assay [1], 20.2 ± 21.1%; in the assay with Shewanella sp. (TC11), 42.6 ± 5.6%; in the assay with Polaribacter sp. (TC5), 42.9 ± 4.5%; in assay [3], 28.4 ± 14%. Also, the EC50 in the assay on Paracoccus sp. (4M6) is 43.3 ± 14.6 µM; in assay [1], 121 ± 76.8 µM; with Shewanella sp. (TC11) it was 152 ± 20.4 µM; in the assay on Polaribacter sp. (TC5), 150 ± 8.1 µM; in assay [3], 147 ± 14.4 µM. The IE % in assay [2] (0.1 ppm) was found to be 90.59%; in assay [2] (0.3 ppm), 94.18%; in assay [2] (0.5 ppm), 95.90%; in assay [2] (2 ppm), 96.37%; in assay [2] (10 ppm) it was 96.64%.
